≈ marks a conversion by molar mass, not a printed value. Where two headings read alike, the source gives them in different places.
Assays:
human (hACC2) ACC2 = human (hACC2) ACC2 (Homo sapiens, UniProt O00763); test: In vitro Acetyl-CoA Carboxylase (ACC) inhibition assay (ADP-Glo), hACC2; format: biochemical
Method: The detailed procedure is as follows. […] 10 μL ADP glo reagent was added. […] 20 μL kinase detection reagent was added.
“NA” stands for “not assayed.”

C. krusei ATCC 6258 = test: Anti-Fungal (Candida) Activity Assay, broth microtiter MIC; format: cell-based; details: Pichia kudriavzevii, read-out: MIC C. krusei ATCC 6258
In short: (§1)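 Test compounds were dissolved in DMSO at 1 mg/mL (stock) and challenged against direct colony suspensions in RPMI 1640 with MOPS under CLSI M27-A3 broth microdilution. Growth was judged by eye relative to drug-free control after 48 h.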

[1] = test system: C. parapsilosis ATCC 22019; test: as above; format: cell-based; details: Lodderomyces parapsilosis, read-out: MIC C. parapsilosis ATCC 22019
In short: as §1

C. albicans ATCC 90028 = test: as above; format: cell-based; details: read-out: MIC C. albicans ATCC 90028
In short: as §1

fungal (fACC2) ACC2 = fungal (fACC2) ACC2 (UniProt Q00955); details: read-out: fACC2 IC50; fungal ACC2, ADP-Glo
Method: An exemplary procedure for the in vitro ACC inhibition assay, which can be used to determine the inhibitory action of compounds of the invention toward either human (hACC2) or fungal (fACC2) ACC2, follows. The ADP-Glo™ Kinase Assay kit from Promega was used. The ADP-Glo™ Kinase Assay is a luminescent ADP detection assay to measure enzymatic activity by quantifying the amount of ADP produced during an enzyme reaction. The assay is performed in two steps; first, after the enzyme reaction, an equal volume of ADP-Glo™ Reagent is added to terminate the reaction and deplete the remaining ATP. Second, the Kinase Detection Reagent is added to simultaneously convert ADP to ATP and allow the newly synthesized ATP to be measured using a luciferase/luciferin reaction. Luminescence can be correlated to ADP concentrations by using an ATP-to-ADP conversion curve. The detailed procedure is as follows. 50 μL of the compound being tested (600 μM in DMSO) was added to a 384-well dilution plate. The compound was diluted 1:3 in succession in DMSO for each row for 11 wells. 0.5 μL ACC2 working solution was added to 384-well white Optiplate assay plate. 0.5 μL diluted compound solution in each column from step 2 was added to assay plate, each row containing 2 replicates. […] The plates were incubated at room temperature for 15 minutes. 5 μL substrate working solution was added to each well to initiate reaction. Final ACC2 reaction concentrations consist of: 5 nM ACC2, 20 μM ATP, 20 μM acetyl-CoA, 12 mM NaHCO3, 0.01% Brij35, 2 mM DTT, 5% DMSO, test compound concentrations: 30 μM, 10 μM, 3.33 μM, 1.11 μM, 0.37 μM, 0.123 μM, 0.0411 μM, 0.0137 μM, 0.00457 μM, 0.00152 μM, and 0.00051 μM. Plates were incubated at room temperature for 60 minutes. 10 μL ADP glo reagent was added. Plates were incubated at room temperature for 40 minutes. 20 μL kinase detection reagent was added. Plates were incubated at room temperature for 40 minutes, and then read on a Perkin Elmer EnVision 2104 plate reader for luminescence as Relative Light Units (RLU).
Data for each concentration, as well as the positive and negative controls were averaged, and the standard deviation calculated. Percent inhibition was calculated by the formula: 100×(average negative control−compound)/(average negative control−average positive control). The IC50 for each compound was calculated by fitting the data with a non-linear regression equation: Y=Bottom+(Top-Bottom)/(1+10^((Log IC50−X)*Hill Slope)), where X is the log of compound concentration and Y is percent inhibition.
Compounds having an activity designated as “AA” provided an IC50 0.0006-0.003 μM; provided an “A” provided an IC50 0.003-0.01 μM; compounds having an activity designated as “B” provided an IC50 0.01-0.04 μM; and compounds having an activity designated as “C” provided an IC50>0.04 μM IC50. “NA” stands for “not assayed.”

[2] = test system: Fusarium virguliforme (Fv); test: Growth inhibition assay of fungal pathogens; format: cell-based; details: 48 h
In short: (§2)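 Compounds in DMSO tested at final 50, 10, 2 ppm or 2, 0.4, 0.08 ppm. Spores in 17% V8 medium, or 1.5 mm mycelial plugs in ¼ PDB for R. solani, incubated with compound. OD600 and visual ratings at 48 h versus 2% DMSO control gave percent growth inhibition.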

[3] = test system: Phytophthora capsici (Pc); test: Growth inhibition assay of fungal pathogens; format: cell-based; details: for IC90: Phytophthora capsici, read-out: Concentration at 90% Inhibition Pc
In short: as §2

Septoria tritici (St) = test: Growth inhibition assay of fungal pathogens; format: cell-based; details: for IC90: Zymoseptoria tritici, read-out: Concentration at 90% Inhibition St
In short: as §2

Botrtyis cinerea (Bc) = test: Growth inhibition assay of fungal pathogens; format: cell-based; details: 48 h, read-out: Concentration at 90% Inhibition Bc
In short: (§3)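 Percent growth inhibition was derived from 48 h OD600 and visual scores relative to 2% DMSO, with blank background subtraction. Fungi were grown from spores in 17% V8 liquid medium, R. solani from 1.5 mm plugs in ¼ PDB, with compound at final 50/10/2 or 2/0.4/0.08 ppm.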

[4] = test system: Fusarium moniliforme (Fm); test: Growth inhibition assay of fungal pathogens; format: cell-based; details: for IC90: Fusarium verticillioides, 48 h, read-out: Concentration at 90% Inhibition Fm
In short: as §3

[5] = test system: Collectotrichum graminicola (Cg); test: Growth inhibition assay of fungal pathogens; format: cell-based; details: 48 h, read-out: Concentration at 90% Inhibition Cg
In short: as §2

Diplodia maydis (Dm) = test: Growth inhibition assay of fungal pathogens; format: cell-based; details: Stenocarpella maydis, 48 h, read-out: Concentration at 90% Inhibition Dm
In short: as §3

Rhizoctonia solani (Rs) = test: Growth inhibition assay of fungal pathogens; format: cell-based; details: 48 h, read-out: Concentration at 90% Inhibition Rs
In short: as §3

[6] = ATCC6258, 3 replicates, MIC recorded at 48 h
[7] = ATCC22019, 3 replicates, MIC recorded at 48 h
[8] = ATCC90028, 3 replicates, MIC recorded at 48 h
[9] = read-out: Concentration at 90% Inhibition Fv, Table 4a, 48 hours
[10] = read-out: Concentration at 90% Inhibition Fv, Table 4b, 48 hours

Chain of human (hACC2) ACC2 (O00763 whole entry): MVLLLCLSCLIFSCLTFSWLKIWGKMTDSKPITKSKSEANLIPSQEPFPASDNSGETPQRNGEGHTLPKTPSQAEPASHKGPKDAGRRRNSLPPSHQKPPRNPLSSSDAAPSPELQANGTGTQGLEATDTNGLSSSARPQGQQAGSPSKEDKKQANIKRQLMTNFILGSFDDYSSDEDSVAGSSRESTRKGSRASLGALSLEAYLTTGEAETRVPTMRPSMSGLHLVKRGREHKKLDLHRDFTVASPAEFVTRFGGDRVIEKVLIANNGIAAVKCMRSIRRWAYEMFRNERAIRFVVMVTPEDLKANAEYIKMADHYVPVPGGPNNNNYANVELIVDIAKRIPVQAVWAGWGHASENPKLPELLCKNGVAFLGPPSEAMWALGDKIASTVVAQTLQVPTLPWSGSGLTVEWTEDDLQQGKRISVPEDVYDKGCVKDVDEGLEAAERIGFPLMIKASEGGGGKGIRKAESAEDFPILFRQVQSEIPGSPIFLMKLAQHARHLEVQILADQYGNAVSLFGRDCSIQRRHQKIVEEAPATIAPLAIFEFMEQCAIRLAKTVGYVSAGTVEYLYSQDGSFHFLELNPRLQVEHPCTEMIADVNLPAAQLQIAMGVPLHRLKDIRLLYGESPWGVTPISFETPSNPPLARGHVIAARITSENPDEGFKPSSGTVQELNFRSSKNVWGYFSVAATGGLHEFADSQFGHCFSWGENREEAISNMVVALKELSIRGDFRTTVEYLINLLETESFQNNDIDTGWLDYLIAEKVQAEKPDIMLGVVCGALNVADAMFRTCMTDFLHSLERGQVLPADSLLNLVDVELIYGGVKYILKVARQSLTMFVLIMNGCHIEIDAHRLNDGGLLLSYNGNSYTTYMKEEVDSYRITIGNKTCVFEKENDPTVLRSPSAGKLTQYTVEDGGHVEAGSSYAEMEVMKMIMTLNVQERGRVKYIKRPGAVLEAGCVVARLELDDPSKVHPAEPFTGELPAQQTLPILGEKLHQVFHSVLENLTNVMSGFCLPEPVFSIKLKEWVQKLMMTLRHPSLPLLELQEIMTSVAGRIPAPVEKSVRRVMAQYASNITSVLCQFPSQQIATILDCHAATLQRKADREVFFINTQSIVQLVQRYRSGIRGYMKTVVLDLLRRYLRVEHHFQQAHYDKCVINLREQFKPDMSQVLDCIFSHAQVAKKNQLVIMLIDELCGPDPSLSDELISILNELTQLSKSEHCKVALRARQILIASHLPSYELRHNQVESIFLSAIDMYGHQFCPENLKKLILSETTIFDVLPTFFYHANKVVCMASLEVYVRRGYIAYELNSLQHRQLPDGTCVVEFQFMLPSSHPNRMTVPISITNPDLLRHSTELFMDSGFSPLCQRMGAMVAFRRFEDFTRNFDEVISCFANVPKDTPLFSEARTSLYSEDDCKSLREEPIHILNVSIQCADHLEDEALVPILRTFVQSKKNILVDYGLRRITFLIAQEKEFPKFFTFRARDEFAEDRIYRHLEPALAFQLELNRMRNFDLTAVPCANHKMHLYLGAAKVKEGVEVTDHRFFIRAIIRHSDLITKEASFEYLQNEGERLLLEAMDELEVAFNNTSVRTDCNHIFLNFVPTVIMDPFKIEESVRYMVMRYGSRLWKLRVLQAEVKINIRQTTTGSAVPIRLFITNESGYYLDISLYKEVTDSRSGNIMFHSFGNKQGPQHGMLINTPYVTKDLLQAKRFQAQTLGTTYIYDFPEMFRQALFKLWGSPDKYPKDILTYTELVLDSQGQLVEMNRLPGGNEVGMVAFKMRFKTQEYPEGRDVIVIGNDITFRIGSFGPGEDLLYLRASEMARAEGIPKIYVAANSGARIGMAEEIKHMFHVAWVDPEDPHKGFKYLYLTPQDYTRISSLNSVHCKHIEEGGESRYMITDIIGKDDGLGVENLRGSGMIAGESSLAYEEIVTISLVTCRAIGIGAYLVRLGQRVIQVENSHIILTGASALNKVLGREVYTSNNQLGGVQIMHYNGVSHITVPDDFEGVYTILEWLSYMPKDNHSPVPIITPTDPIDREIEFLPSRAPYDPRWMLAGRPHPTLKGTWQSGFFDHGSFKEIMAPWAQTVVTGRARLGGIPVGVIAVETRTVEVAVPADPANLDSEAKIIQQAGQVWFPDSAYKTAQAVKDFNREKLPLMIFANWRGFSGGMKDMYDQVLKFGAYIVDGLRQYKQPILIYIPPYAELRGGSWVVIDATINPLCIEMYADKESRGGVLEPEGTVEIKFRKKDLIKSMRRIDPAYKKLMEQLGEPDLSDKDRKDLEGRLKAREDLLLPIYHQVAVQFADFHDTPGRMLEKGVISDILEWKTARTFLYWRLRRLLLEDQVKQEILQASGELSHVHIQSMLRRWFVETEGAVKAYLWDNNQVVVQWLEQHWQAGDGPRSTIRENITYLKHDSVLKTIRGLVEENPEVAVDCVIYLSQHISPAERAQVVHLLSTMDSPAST
Chain of fungal (fACC2) ACC2 (Q00955 whole entry): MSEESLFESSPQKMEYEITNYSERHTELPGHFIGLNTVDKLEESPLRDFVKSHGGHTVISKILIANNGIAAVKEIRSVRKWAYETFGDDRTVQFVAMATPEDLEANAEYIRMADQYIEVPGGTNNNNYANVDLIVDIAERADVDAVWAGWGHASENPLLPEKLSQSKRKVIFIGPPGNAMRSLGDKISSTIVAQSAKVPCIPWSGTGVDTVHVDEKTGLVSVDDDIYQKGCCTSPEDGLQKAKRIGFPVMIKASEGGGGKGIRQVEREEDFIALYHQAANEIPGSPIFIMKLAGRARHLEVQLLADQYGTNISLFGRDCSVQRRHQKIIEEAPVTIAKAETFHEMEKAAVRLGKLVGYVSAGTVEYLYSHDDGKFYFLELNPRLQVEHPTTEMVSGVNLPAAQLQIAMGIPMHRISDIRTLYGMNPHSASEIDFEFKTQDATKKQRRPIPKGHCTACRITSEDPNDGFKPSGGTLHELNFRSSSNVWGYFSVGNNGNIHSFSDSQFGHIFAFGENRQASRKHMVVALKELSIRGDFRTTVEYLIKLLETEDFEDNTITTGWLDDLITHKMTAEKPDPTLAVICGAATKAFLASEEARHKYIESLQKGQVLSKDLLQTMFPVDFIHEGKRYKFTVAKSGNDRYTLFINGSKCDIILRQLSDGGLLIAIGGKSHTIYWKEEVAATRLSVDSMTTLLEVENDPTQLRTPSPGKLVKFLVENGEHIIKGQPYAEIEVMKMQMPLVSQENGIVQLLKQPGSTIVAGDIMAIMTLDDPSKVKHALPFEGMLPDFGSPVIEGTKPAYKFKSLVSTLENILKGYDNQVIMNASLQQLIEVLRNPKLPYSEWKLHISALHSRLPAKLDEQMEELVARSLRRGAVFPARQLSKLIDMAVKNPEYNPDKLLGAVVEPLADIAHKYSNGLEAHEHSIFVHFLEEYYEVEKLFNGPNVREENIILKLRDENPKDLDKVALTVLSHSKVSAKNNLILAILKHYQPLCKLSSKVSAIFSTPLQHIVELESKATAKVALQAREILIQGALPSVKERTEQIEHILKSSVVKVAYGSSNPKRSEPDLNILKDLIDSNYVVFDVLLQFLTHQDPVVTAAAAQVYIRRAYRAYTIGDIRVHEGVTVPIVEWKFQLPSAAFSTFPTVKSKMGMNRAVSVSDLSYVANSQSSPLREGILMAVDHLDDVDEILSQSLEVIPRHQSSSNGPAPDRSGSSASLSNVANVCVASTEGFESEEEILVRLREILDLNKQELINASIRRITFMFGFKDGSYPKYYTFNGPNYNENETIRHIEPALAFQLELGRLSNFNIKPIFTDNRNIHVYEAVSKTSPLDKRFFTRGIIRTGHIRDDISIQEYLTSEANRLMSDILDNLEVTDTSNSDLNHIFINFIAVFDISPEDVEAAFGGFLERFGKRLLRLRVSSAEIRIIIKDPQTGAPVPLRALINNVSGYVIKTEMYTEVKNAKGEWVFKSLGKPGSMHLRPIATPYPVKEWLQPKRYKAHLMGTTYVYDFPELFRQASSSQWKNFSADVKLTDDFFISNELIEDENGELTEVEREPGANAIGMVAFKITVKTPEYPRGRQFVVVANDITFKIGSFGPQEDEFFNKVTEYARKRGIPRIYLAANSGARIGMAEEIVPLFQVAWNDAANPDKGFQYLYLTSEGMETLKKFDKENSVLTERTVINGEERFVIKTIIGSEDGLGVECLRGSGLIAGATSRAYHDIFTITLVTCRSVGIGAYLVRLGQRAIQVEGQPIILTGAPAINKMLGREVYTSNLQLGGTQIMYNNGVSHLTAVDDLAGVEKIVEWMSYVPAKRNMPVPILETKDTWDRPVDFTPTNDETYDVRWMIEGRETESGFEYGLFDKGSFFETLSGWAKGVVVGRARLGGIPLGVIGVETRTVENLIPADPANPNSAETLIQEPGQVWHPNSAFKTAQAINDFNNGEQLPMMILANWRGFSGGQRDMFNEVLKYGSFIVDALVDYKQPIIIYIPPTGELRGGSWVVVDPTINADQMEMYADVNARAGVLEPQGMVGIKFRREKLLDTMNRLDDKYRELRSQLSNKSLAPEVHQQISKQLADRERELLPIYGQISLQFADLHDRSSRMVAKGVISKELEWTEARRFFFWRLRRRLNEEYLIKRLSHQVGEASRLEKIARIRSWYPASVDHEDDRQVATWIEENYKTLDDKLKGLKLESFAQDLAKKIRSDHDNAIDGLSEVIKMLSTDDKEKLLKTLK

| SMILES | IC50 (human (hACC2) ACC2) [nM] | MIC (C. krusei ATCC 6258; [6]) [µg/mL] | MIC [1, 7] [µg/mL] | MIC (C. albicans ATCC 90028; [8]) [µg/mL] | IC50 (fungal (fACC2) ACC2) [nM] | IC90 (Botrtyis cinerea (Bc); Table 4a) [µg/mL] | IC90 (Botrtyis cinerea (Bc); Table 4b) [µg/mL] | IC90 ([5]; Table 4a) [µg/mL] | IC90 ([5]; Table 4b) [µg/mL] | IC90 (Diplodia maydis (Dm); Table 4a) [µg/mL] | IC90 (Diplodia maydis (Dm); Table 4b) [µg/mL] | IC90 (Rhizoctonia solani (Rs); Table 4a) [µg/mL] | IC90 (Rhizoctonia solani (Rs); Table 4b) [µg/mL] | MIC (C. krusei ATCC 6258; ATCC6258, 48 h) [µg/mL] | MIC ([1]; ATCC22019, 48 h) [µg/mL] | MIC (C. albicans ATCC 90028; ATCC90028, 48 h) [µg/mL] | IC90 [2, 9] [µg/mL] | IC90 [2, 10] [µg/mL] | IC90 ([3]; 48 h, Table 4a) [µg/mL] | IC90 ([3]; 48 h, Table 4b) [µg/mL] | also measured |
| --- | --- | --- | --- | --- | --- | --- | --- | --- | --- | --- | --- | --- | --- | --- | --- | --- | --- | --- | --- | --- | --- |
| COc1ccc(F)cc1[C@H](Cn1c(=O)n(C(C)(C)C(=O)NC(C)C)c(=O)c2c(C)c(-n3cccn3)sc21)OC(C)C.I [Compound I-1, (R)-2-(I-(2-(5-fluoro-2-methoxyphenyl)-2-isopropoxyethyl)-5-methyl-2,4-dioxo-6-(1H-pyrazol-1-yl)-1,4-dihydrothieno[2,3-d]pyrimidin-3(2H)-yl)-N-isopropyl-2-methylpropanamide] | 10 to 40 | 0.25 to 1 | 2.1 to 4 | 2.1 to 4 | 0.6 to 3 | 0.4 | 0.4 | 2 | 2 | 2 | 2 | 2 | 2 | – | – | – | – | – | – | – | IC90 ([2]; Table 4a, 48 hours, read-out: Concentration at 90% Inhibition Fv): 0.4 µg/mL; IC90 ([2]; Table 4b, 48 hours, read-out: Concentration at 90% Inhibition Fv): 0.4 µg/mL; IC90 ([3]; Table 4a, 48 hours): > 50 µg/mL; Concentration at 90% Inhibition Pc ([3]; Table 4b, 48 hours): D (“D” provided a compound concentration of >50 ppm at 90% inhibition of fungal pathogens); Concentration at 90% Inhibition St (Septoria tritici (St); Table 4b, 48 hours): D (“D” provided a compound concentration of >50 ppm at 90% inhibition of fungal pathogens); IC90 (Septoria tritici (St); Table 4a, 48 hours): > 50 µg/mL; IC90 ([4]; Table 4a, 48 hours): 0.08 µg/mL; IC90 ([4]; Table 4b, 48 hours): 0.08 µg/mL |
| COc1ccc(F)cc1[C@H](Cn1c(=O)n(C(C)(C)C(=O)N2CCCCC2)c(=O)c2c(C)c(-n3cccn3)sc21)OC(C)C [Compound I-2, (R)-1-(2-(5-fluoro-2-methoxyphenyl)-2-isopropoxyethyl)-5-methyl-3-(2-methyl-1-oxo-1-(piperidin-1-yl)propan-2-yl)-6-(1H-pyrazol-1-yl)thieno[2,3-d]pyrimidine-2,4(1H,3H)-dione] | 10 to 40 | – | – | – | 0.6 to 3 | 0.4 (≈ 0.654 µM) | 0.4 (≈ 0.654 µM) | 2 (≈ 3.27 µM) | 2 (≈ 3.27 µM) | 0.4 (≈ 0.654 µM) | 0.4 (≈ 0.654 µM) | 0.4 (≈ 0.654 µM) | 0.4 (≈ 0.654 µM) | 0.25 to 1 (≈ 0.409 to 1.63 µM) | 1.1 to 2 (≈ 1.8 to 3.27 µM) | 0.25 to 1 (≈ 0.409 to 1.63 µM) | 0.4 (≈ 0.654 µM) | 0.4 (≈ 0.654 µM) | > 50 | > 50 | IC90 (Septoria tritici (St); 48 h, Table 4a): > 50 µg/mL; IC90 (Septoria tritici (St); 48 h, Table 4b): > 50 µg/mL; IC90 [4]: 0.08 µg/mL (≈ 0.131 µM); Concentration at 90% Inhibition Fm ([4]; Table 4b, 48 hours): AA (“AA” provided a compound concentration of 0.08 ppm at 90% inhibition of fungal pathogens) |
| COc1ccccc1[C@H](Cn1c(=O)n(C(C)(C)C(=O)N2CCCCC2)c(=O)c2c(C)c(-n3cccn3)sc21)OC1CCOCC1 [Compound I-13, (R)-1-(2-(2-methoxyphenyl)-2-((tetrahydro-2H-pyran-4-yl)oxy)ethyl)-5-methyl-3-(2-methyl-1-oxo-1-(piperidin-1-yl)propan-2-yl)-6-(1H-pyrazol-1-yl)thieno[2,3-d]pyrimidine-2,4(1H,3H)-dione] | 10 to 40 | – | – | – | 0.6 to 3 | 2 (≈ 3.15 µM) | 2 (≈ 3.15 µM) | > 50 | 10 (≈ 15.7 µM) | > 50 | 10 (≈ 15.7 µM) | > 50 | 10 (≈ 15.7 µM) | 0.25 to 1 (≈ 0.393 to 1.57 µM) | 1.1 to 2 (≈ 1.73 to 3.15 µM) | 0.25 to 1 (≈ 0.393 to 1.57 µM) | > 50 | 10 (≈ 15.7 µM) | > 50 | > 50 | IC90 (Septoria tritici (St); 48 h, Table 4a): > 50 µg/mL; IC90 (Septoria tritici (St); 48 h, Table 4b): > 50 µg/mL; IC90 [4]: 0.4 µg/mL (≈ 0.629 µM); Concentration at 90% Inhibition Fm ([4]; Table 4b, 48 hours): A (“A” provided a compound concentration of 0.4 ppm at 90% inhibition of fungal pathogens) |
| COCCCO[C@@H](Cn1c(=O)n(C(C)C(=O)N2CCCC2)c(=O)c2c(C)c(-n3cccn3)sc21)c1cc(F)ccc1OC (stereo partly shown) [Compound I-70] | 10 to 40 | > 4.1 | > 4.1 | > 4.1 | 0.6 to 3 | – | – | – | – | – | – | – | – | – | – | – | – | – | – | – | – |
| COc1ccccc1[C@H](Cn1c(=O)n(C(C)(C)C(=O)O)c(=O)c2c(C)c(-n3cccn3)sc21)OC1CCOCC1 [Compound I-71] | 10 to 40 | > 4.1 | > 4.1 | > 4.1 | 0.6 to 3 | – | – | – | – | – | – | – | – | – | – | – | – | – | – | – | – |

Source: US10941158B2, “Pyrazole ACC inhibitors and uses thereof” (Gilead Apollo, LLC, priority 2015, dated 2021)
